Assay results: the supplement of paper PMC12137928
Structures can show the parent of a compound that is named as a salt.

Test system: HCT116
Conditions: 72 h
How it was run: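 In 1536-well plates, 250 HCT116 cells per well were seeded and left for 5 h to attach. Luminescence from CellTiter-Glo was set against vehicle (0%) and positive control (-100%), and pattern correction was applied. IC50 and maximal efficacy come from four-parameter Hill fitting.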

| SMILES | IC50 cell viability (ICRF193 0 nM) [µM] | IC50 cell viability (ICRF193 200 nM) [µM] |
| --- | --- | --- |
| CC(C)C[C@H]1C(=O)N2CCC[C@H]2[C@]2(O)O[C@](NC(=O)[C@@H]3C[C@@H]4c5cccc6[nH]cc(c56)C[C@H]4N(C)C3)(C(C)C)C(=O)N12 [Dihydroergocriptine] | > 45.8 | > 45.8 |
| CN(C)CCOC(=O)C(c1ccccc1)C1(O)CCCC1 (stereo unspecified) [Cyclopentolate hydrochloride] | > 45.8 | > 45.8 |
| CC[C@H]1CN2CC[C@H]1C[C@@H]2[C@@H](O)c1ccnc2ccc(OC)cc12 [Hydroquinidine HCl] | > 45.8 | > 45.8 |
| CC1(C)[C@@H](O[C@H]2O[C@H](C(=O)O)[C@@H](O)[C@H](O)[C@H]2O[C@@H]2O[C@H](C(=O)O)[C@@H](O)[C@H](O)[C@H]2O)CC[C@]2(C)[C@H]3C(=O)C=C4[C@@H]5C[C@@](C)(C(=O)O)CC[C@]5(C)CC[C@@]4(C)[C@]3(C)CC[C@@H]12 [Ammonium Glycyrrhizinate] | > 45.8 | > 45.8 |
| O=S(=O)(O)c1ccccc1 [Benzene sulfonic acid] | > 45.8 | > 45.8 |
| O=C(O)c1cn(C2CC2)c2cc(N3CCNCC3)c(F)cc2c1=O [Ciprofloxacin] | > 45.8 | > 45.8 |
| CCCCC(=O)O[C@]1(C(=O)CO)[C@@H](C)C[C@H]2[C@@H]3CCC4=CC(=O)C=C[C@]4(C)[C@@]3(F)[C@@H](O)C[C@@]21C [Betamethasone valerate] | > 45.8 | > 45.8 |
| C[C@H](O)[C@H](O)[C@H]1CNc2nc(N)[nH]c(=O)c2N1 [(6R)-5,6,7,8-Tetrahydrobiopterin dihydrochloride] | > 45.8 | > 45.8 |
| c1ccc2sc(SNC3CCCCC3)nc2c1 [N-Cyclohexyl-2-benzothiazolesulfenamide] | > 45.8 | > 45.8 |
| CC(C)C[C@@H](N)C(=O)O [D-Leucine] | > 45.8 | > 45.8 |
| CC(=O)OCC(=O)[C@@]1(OC(C)=O)[C@@H](C)C[C@H]2[C@@H]3C[C@H](F)C4=CC(=O)C=C[C@]4(C)[C@@]3(F)[C@@H](O)C[C@@]21C [Diflorasone diacetate] | > 45.8 | > 45.8 |
| Cc1ccccc1N1CCN(CCc2nnc3n2CCCC3)CC1 [Dapiprazole hydrochloride] | > 45.8 | > 45.8 |
| CCC(=O)C(CCN(C)C)(c1ccccc1)c1ccccc1 [Normethadone] | > 45.8 | > 45.8 |
| COP(=O)(OC)OC=C(Cl)Cl [Dichlorvos] | > 45.8 | > 45.8 |
| CC(=O)OCC(=O)Nc1cc(C#N)cc(NC(=O)COC(C)=O)c1Cl [Acreozast] | > 45.8 | > 45.8 |
| C[C@@H](O)[C@H]1C(=O)N2C(C(=O)O)=C(S[C@@H]3CN[C@H](CNS(N)(=O)=O)C3)[C@H](C)[C@H]12 [Doripenem] | > 45.8 | > 45.8 |
| CCOc1nc2cccc(C(=O)OCc3oc(=O)oc3C)c2n1Cc1ccc(-c2ccccc2-c2noc(=O)[nH]2)cc1 [Azilsartan Medoxomil] | > 45.8 | > 45.8 |
| C[N+](C)(C)CCOP(=O)(O)OP(=O)([O-])OC[C@H]1O[C@@H](n2ccc(N)nc2=O)[C@H](O)[C@@H]1O [CITICOLINE] | > 45.8 | > 45.8 |
| CC=CC(=O)N(CC)c1ccccc1C [Crotamiton] | > 45.8 | > 45.8 |
| CCCN1C[C@H](CSC)C[C@@H]2c3cccc4[nH]cc(c34)C[C@H]21 [Pergolide methanesulfonate] | > 45.8 | > 45.8 |
| CCCCC[C@H](O)C=C[C@@H]1[C@@H](C/C=C/CCCC(=O)O)[C@H](O)C[C@H]1O [5-trans Prostaglandin F2?] | > 45.8 | > 45.8 |
| O=C(OCCN1CCCCC1)C(O)(c1ccccc1)c1ccccc1 [Piperilate hydrochloride] | > 45.8 | > 45.8 |
| c1ccc2scnc2c1 [Benzothiazole] | > 45.8 | > 45.8 |
| CC(C)(C)NCC(O)c1cc(Cl)c(N)c(Cl)c1 (stereo unspecified) [Clenbuterol] | > 45.8 | > 45.8 |
| O=C([O-])c1ccccc1-c1c2cc(Br)c(=O)cc-2oc2[c]([Hg+])c([O-])c(Br)cc12.[Na+].[Na+].[OH-] [Merbromin] | > 45.8 | > 45.8 |

Now from value to compound:

| IC50 cell viability (ICRF193 0 nM) [µM] | IC50 cell viability (ICRF193 200 nM) [µM] | SMILES |
| --- | --- | --- |
| > 45.8 | > 45.8 | CC(=O)N[C@H]1[C@H]([C@H](O)[C@H](O)CO)OC(C(=O)O)=C[C@@H]1NC(=N)N [Zanamivir] |
| > 45.8 | > 45.8 | O=C1c2cccc3c2[C@H](CCC3)CN1[C@@H]1CN2CCC1CC2 [Palonosetron hydrochloride] |
| > 45.8 | > 45.8 | NC(CO)(CO)CO [Tromethamine] |
| > 45.8 | > 45.8 | CCC[C@H](N[C@@H](C)C(=O)N1[C@H](C(=O)O)C[C@@H]2CCCC[C@@H]21)C(=O)OCC [Perindopril] |
| > 45.8 | > 45.8 | CC[C@@H]1C(=O)OC[C@@H]1Cc1cncn1C [Pilocarpine] |
| > 45.8 | > 45.8 | CC(C)(C)C(=O)OCOC(=O)[C@@H]1N2C(=O)[C@@H](/N=C/N3CCCCCC3)[C@H]2SC1(C)C [Pivmecillinam] |
| > 45.8 | > 45.8 | CCN1C(=O)NC(c2ccccc2)C1=O (stereo unspecified) [Ethotoin] |
| > 45.8 | > 45.8 | CCOc1ccc2c(c1)C(C)=CC(C)(C)N2 [Ethoxyquin] |
| > 45.8 | > 45.8 | CCC(=O)O[C@]1(C(=O)SCF)[C@H](C)C[C@H]2[C@@H]3C[C@H](F)C4=CC(=O)C=C[C@]4(C)[C@@]3(F)[C@@H](O)C[C@@]21C [Fluticasone propionate] |
| > 45.8 | > 45.8 | COc1cc2c(c(OC)c1OC)-c1c(cc3c(c1OC)OCO3)C[C@H](C)[C@@](C)(O)C2 [Schisandrol B] |
| > 45.8 | > 45.8 | CCCc1cc(C(N)=S)ccn1 [Protionamide] |
| > 45.8 | > 45.8 | C[C@H](O)C(=O)Nc1c(I)c(C(=O)NC(CO)CO)c(I)c(C(=O)NC(CO)CO)c1I [Iopamidol] |
| > 45.8 | > 45.8 | Cc1c(N)nc([C@H](CC(N)=O)NC[C@H](N)C(N)=O)nc1C(=O)N[C@H](C(=O)N[C@H](C)[C@@H](O)[C@H](C)C(=O)N[C@H](C(=O)NCCc1nc(-c2nc(C(=O)NCCCN[C@@H](C)c3ccccc3)cs2)cs1)[C@@H](C)O)[C@@H](O[C@@H]1O[C@@H](CO)[C@@H](O)[C@H](O)[C@@H]1O[C@H]1O[C@H](CO)[C@@H](O)[C@H](OC(N)=O)[C@@H]1O)c1c[nH]cn1 [Peplomycin sulfate] |
| > 45.8 | > 45.8 | COc1ccc2c(c1)c(CC(=O)O)c(C)n2C(=O)c1ccc(Cl)cc1 [Indomethacin] |
| > 45.8 | > 45.8 | CC1=CC(=O)c2ccccc2C1=O [Menadione] |
| > 45.8 | > 45.8 | C#CC(C)(CC)OC(=O)c1ccccc1C(=O)O (stereo unspecified) [Phthalofyne] |
| > 45.8 | > 45.8 | CC#CCn1c(N2CCC[C@@H](N)C2)nc2c1c(=O)n(Cc1nc(C)c3ccccc3n1)c(=O)n2C [Linagliptin] |

| IC50 cell viability (ICRF193 0 nM) [µM] | IC50 cell viability (ICRF193 200 nM) [µM] | SMILES |
| --- | --- | --- |
| > 45.8 | > 45.8 | CS(=O)(=O)c1ccc(C(=O)Nc2ccc(Cl)c(-c3ccccn3)c2)c(Cl)c1 [Vismodegib] |
| > 45.8 | > 45.8 | CC[C@H](C)C(=O)O[C@H]1C[C@H](O)C=C2C=C[C@H](C)[C@H](CC[C@@H](O)C[C@@H](O)CC(=O)O)[C@H]21 [Pravastatin] |
| > 45.8 | > 45.8 | C[C@]1(Cn2ccnn2)[C@H](C(=O)O)N2C(=O)C[C@H]2S1(=O)=O [Tazobactam sodium] |
| > 45.8 | > 45.8 | Nc1nc(=O)c2nc(CNc3ccc(C(=O)N[C@@H](CCC(=O)O)C(=O)O)cc3)cnc2[nH]1 [Folic acid] |
| > 45.8 | > 45.8 | CN(C)CCOC(=O)COc1ccc(Cl)cc1 [Meclofenoxate hydrochloride] |
| > 45.8 | > 45.8 | N[C@@H](Cc1ccc(O)c(O)c1)C(=O)O [Levodopa] |
| > 45.8 | > 45.8 | C[C@@H]1CN(c2c(F)c(F)c3c(=O)c(C(=O)O)cn(C4CC4)c3c2F)C[C@H](C)N1 [Orbifloxacin] |
| > 45.8 | > 45.8 | CCn1cc(C(=O)O)c(=O)c2cc(F)c(N3CCNCC3)cc21 [Norfloxacin] |
| > 45.8 | > 45.8 | Cn1nnc2c(C(N)=O)ncn2c1=O [Temozolomide] |
| > 45.8 | > 45.8 | C#CCN[C@@H]1CCc2ccccc21 [Rasagiline mesylate] |
| > 45.8 | > 45.8 | NC[C@H]1O[C@H](O[C@H]2[C@H](O[C@@H]3O[C@H](CO)[C@@H](O)[C@H]3O)[C@@H](O)[C@H](N)C[C@@H]2N)[C@H](N)[C@@H](O)[C@@H]1O [Ribostamycin sulfate] |
| > 45.8 | > 45.8 | CC(C)N(CCCCOCC(=O)NS(C)(=O)=O)c1cnc(-c2ccccc2)c(-c2ccccc2)n1 [NS-304] |
| > 45.8 | > 45.8 | CC(S)C(=O)NCC(=O)O (stereo unspecified) [Tiopronin] |
| > 45.8 | > 45.8 | CCN1CCC[C@H]1CNC(=O)c1cc(S(N)(=O)=O)ccc1OC [Levosulpiride] |
| > 45.8 | > 45.8 | CCN(C(=O)c1c(O)c2c(Cl)cccc2n(C)c1=O)c1ccccc1 [Laquinimod] |
| > 45.8 | > 45.8 | CC(CC(c1ccccc1)c1ccccc1)NC(C)(C)C (stereo unspecified) [Terodiline hydrochloride] |
